Assay results as given in paper PMC10906075 (2024).

Key:
[1] = test system: FAM-labeled phenylalanine aptamer (DNA, aptamer) CTCTCGGGACGACGAGGCTGGATGCATTCGCCGGATGTTCGATGTCGTCCC; assay: strand-displacement fluorescence assay (FAM/dabcyl); conditions: PBS (~150 mM salt), 2 mM MgCl2, dabcyl quencher strand GTCGTCCCGAGAG (S4) displaced, 50 nM aptamer, 150 nM quencher, ~40 min, ambient
[2] = test system: Phe peptide (Phe1) (designed); assay: interface nanopore; conditions: PBS, 1.5 V, 1.0 uN; thiol for surface coupling (end not stated); OWLS: 1x PBS; nanopore: PBS (~150 mM salt), 0.5-1.5 V; pH and temperature not given
[3] = test system: Phe peptide (Phe1) (designed); assay: OWLS; conditions: 1x PBS, thiol for surface coupling (end not stated), OWLS: 1x PBS, nanopore: PBS (~150 mM salt), 0.5-1.5 V, pH and temperature not given

| Compound | binding [1] | also measured |
| --- | --- | --- |
| N[C@@H](Cc1ccc(O)cc1)C(=O)O | no |  |
| NCCc1ccccc1 | weak |  |
| ATTGCTATTCACCGGCGCGGGGCTGGGGCATCGGTAAT [scrambled sequence] |  | binding signal (ms translocation time) [2]: 11; binding signal (ng/cm2 adsorbed mass) ([3]; attributed to nonspecific electrostatic binding): 140 |
| N[C@@H](Cc1ccccc1)C(=O)O | yes |  |
| CGACGAGGCTGGATGCATTCGCCGGATGTTCGATGTCG [phenylalanine aptamer] |  | binding signal (ms translocation time) [2]: 190; binding signal (ng/cm2 adsorbed mass) ([3]; peptide retained after buffer rinse): 198 |
| N[C@@H](Cc1c[nH]c2ccccc12)C(=O)O | no |  |
| NC(=O)[C@@H](N)Cc1ccccc1 | yes |  |
